Reference: patent US4455290A, “Inhibition of fibrin polymerization by a peptide isolated from fibrin Fragment D1” (Research Corporation, priority 1981, dated 1984)
Peptide text beside a SMILES is read from it.

Experiments:
thrombin fibrin monomer = target: T1, thrombin fibrin monomer (Homo sapiens, UniProt P02671+P02675+P02679); test: Inhibition of fibrin monomer polymerization (absorbance at 350 nm), thrombin fibrin monomer; assay type: biochemical; settings: molar excess of D1 Peptide to fibrin monomer of 100-1000 fold; Sephadex gel equilibrium system; kind of fibrin monomer not stated
T1 construct: Thrombin cleaves the bonds Aα16 Arg-17 Gly and Bβ14 Arg-15 Gly, releasing two molecules of fibrinopeptide A and two molecules of fibrinopeptide B; made in house; host or cells: not recombinant: made from fibrinogen by treatment with thrombin
T1 sequence (P02671 36-629 isoform P02671-2): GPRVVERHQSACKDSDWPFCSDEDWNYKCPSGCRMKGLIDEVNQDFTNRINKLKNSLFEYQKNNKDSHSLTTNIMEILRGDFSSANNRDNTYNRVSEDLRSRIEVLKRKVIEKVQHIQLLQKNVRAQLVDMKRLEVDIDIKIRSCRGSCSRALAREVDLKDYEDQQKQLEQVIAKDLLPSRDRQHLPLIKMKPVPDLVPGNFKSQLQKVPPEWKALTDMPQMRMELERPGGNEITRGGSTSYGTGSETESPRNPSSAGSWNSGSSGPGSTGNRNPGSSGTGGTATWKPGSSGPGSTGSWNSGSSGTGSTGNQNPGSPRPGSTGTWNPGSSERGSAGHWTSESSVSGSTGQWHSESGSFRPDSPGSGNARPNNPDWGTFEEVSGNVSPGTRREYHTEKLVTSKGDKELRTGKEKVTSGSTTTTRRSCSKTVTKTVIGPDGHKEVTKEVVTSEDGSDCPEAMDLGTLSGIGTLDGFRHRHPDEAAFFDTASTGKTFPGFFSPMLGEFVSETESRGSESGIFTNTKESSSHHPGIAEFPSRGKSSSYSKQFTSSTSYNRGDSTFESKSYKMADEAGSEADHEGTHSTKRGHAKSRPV
T1 sequence (P02675 45-491): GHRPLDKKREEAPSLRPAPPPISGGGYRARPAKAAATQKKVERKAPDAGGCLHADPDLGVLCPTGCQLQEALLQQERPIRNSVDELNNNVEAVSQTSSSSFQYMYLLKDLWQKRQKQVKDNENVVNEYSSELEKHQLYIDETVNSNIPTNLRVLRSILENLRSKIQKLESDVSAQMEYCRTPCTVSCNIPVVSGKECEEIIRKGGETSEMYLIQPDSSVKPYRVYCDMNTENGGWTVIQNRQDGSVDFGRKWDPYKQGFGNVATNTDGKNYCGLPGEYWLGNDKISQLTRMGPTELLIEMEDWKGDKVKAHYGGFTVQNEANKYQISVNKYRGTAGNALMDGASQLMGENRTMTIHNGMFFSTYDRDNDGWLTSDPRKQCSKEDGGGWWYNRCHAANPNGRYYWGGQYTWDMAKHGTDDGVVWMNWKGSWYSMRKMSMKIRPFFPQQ
T1 sequence (P02679 27-437 isoform P02679-2): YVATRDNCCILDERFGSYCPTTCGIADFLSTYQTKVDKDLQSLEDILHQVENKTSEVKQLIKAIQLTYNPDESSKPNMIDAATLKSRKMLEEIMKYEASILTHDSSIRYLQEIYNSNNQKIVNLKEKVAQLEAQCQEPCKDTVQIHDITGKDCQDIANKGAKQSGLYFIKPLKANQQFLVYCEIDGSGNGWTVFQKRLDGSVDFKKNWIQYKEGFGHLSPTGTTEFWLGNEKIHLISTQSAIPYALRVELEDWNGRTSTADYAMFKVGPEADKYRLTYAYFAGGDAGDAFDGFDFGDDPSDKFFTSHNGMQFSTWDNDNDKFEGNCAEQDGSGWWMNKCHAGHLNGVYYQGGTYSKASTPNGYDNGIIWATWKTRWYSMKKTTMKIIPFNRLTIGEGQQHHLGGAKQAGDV
Procedure: Fibrin monomer was prepared according to the method of Belitser et al, Biochem. Biophys. Acta 154, 367-375 (1968) using either thrombin or batroxobin (an enzyme from the venom of Bothrops atrox). The polymerization of fibrin monomer which was formed by batroxobin (lacking fibrinopeptide A) or by thrombin (lacking fibrinopeptides A and B) was inhibited by D1 Peptide. Polymerization was measured spectrophotometrically at 350 nm as has been described in Budzynski, Biochem. Biophys. Acta 584, 284-287 (1979). […] At zero time the recorder was started and 0.01 ml of fibrin monomer (1.5 mg/ml in 0.02M acetic acid) was added, the cells were inverted, and the increase in absorbance at 350 nm was measured continuously for 15 min or until plateau levels were reached. For batroxobin fibrin monomer 0.15 ml of buffer or buffer containing D1 Peptide was mixed with 0.05 ml of batroxobin fibrin monomer (1.5 mg/ml in 0.02M acetic acid). The initial rate of polymerization was calculated from the slope of the steepest part of the curve and expressed as the increase in absorbance per min (A350 ·min^-1).

fibrinogen = target: T2, fibrinogen (Homo sapiens, UniProt P02671+P02675+P02679); test: Equilibrium binding of 125-I D1 Peptide, fibrinogen
T2 construct: purchased Grade L
T2 sequence (P02671 20-644 isoform P02671-2 limits assumed): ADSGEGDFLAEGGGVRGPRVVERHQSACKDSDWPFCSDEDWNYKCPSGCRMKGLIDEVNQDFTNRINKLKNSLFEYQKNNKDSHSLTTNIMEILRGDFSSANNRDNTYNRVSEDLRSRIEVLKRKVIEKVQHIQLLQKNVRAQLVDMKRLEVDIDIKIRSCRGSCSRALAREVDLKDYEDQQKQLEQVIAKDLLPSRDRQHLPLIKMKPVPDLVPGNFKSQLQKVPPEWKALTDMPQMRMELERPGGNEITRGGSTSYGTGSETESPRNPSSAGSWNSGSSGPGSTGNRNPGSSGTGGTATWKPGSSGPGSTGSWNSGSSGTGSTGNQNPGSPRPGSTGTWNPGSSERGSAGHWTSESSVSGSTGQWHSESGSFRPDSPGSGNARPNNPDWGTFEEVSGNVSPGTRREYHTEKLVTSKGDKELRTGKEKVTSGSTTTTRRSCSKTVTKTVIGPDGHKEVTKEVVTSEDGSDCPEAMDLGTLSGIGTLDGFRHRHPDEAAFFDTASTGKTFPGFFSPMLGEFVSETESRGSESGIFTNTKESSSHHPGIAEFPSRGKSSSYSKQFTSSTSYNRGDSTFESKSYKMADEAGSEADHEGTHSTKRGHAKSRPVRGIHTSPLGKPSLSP
T2 sequence (P02675 31-491): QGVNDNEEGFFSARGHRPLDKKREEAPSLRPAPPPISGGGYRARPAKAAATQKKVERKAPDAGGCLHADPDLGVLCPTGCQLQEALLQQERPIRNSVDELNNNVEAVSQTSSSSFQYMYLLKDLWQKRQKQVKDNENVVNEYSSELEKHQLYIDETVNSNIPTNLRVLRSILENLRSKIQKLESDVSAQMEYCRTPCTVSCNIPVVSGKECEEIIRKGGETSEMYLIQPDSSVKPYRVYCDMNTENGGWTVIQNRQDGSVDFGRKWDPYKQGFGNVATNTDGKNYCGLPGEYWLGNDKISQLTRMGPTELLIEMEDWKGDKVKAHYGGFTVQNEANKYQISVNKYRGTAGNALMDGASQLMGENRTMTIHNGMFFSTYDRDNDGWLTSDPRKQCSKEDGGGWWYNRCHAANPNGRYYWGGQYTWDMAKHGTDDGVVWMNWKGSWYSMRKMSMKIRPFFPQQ
T2 sequence (P02679 27-437 isoform P02679-2 limits assumed): T1 sequence (P02679 27-437 isoform P02679-2)
From the text: Acta 133, 376-379 (1979).

## CC[C@H](C)[C@H](NC(=O)[C@H](CCCCN)NC(=O)[C@H](CCSC)NC(=O)[C@@H](NC(=O)[C@@H](NC(=O)[C@H](CCCCN)NC(=O)[C@H](CCCCN)NC(=O)[C@H](CCSC)NC(=O)[C@H](CO)NC(=O)[C@H](Cc1ccc(O)cc1)NC(=O)[C@H](Cc1c[nH]c2ccccc12)NC(=O)[C@H](CCCNC(=N)N)NC(=O)[C@@H](N)[C@@H](C)O)[C@@H](C)O)[C@@H](C)O)C(=O)N[C@H](C(=O)N1CCC[C@H]1C(=O)N[C@@H](Cc1ccccc1)C(=O)N[C@@H](CC(N)=O)C(=O)N[C@@H](CCCNC(=N)N)C(=O)N[C@@H](CC(C)C)C(=O)N[C@H](C(=O)N[C@H](C(=O)NCC(=O)N[C@@H](CCC(=O)O)C(=O)NCC(=O)N[C@@H](CCC(N)=O)C(=O)N[C@@H](CCC(N)=O)C(=O)N[C@@H](Cc1c[nH]cn1)C(=O)N[C@@H](Cc1c[nH]cn1)C(=O)N[C@@H](CC(C)C)C(=O)NCC(=O)NCC(=O)N[C@@H](C)C(=O)N[C@@H](CCCCN)C(=O)N[C@@H](CCC(N)=O)C(=O)N[C@@H](C)C(=O)NCC(=O)N[C@@H](CC(=O)O)C(=O)N[C@H](C(=O)O)C(C)C)[C@@H](C)CC)[C@@H](C)O)[C@@H](C)CC [D1 Peptide] (H-TRWYSMKKTTMKIIPFNRLTIGEGQQHHLGGAKQAGDV-OH)
Thrombin fibrin monomer
  lag time in the fibrin monomer polymerization: more than 30 min
fibrinogen
  binding to fibrinogen: no measurable binding
